Source: US10206394B2, “Herbicidal compounds” (Syngenta Participations AG, priority 2014, dated 2019)
Like-named read-outs stand apart in the source and are kept apart here.

Experiments:
Experiment in all cases: Glasshouse assay for herbicidal activity (pre- and post-emergence), percentage phytotoxicity
Type in all cases: in vivo
[1] = tested on: Alopecurus myosuroides (ALOMY); conditions: Alopecurus myosuroides, Rate 250 g/ha, 100%=total damage, 0%=no damage
Procedure, shortened: (§1)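 Visually rated damage, 0–100%. PRE spray 1 d after sowing, scored 20 DAA; POST spray ~12 d, scored 15 DAA. Glasshouse at 65% humidity, 16 h day.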

[2] = tested on: Echinochloa crus-galli (ECHCG); conditions: Echinochloa crus-galli, Rate 250 g/ha, 100%=total damage, 0%=no damage
Procedure, shortened: as §1

Avena fatua (AVEFA) = conditions: Avena fatua, Rate 250 g/ha, 100%=total damage, 0%=no damage
Procedure, shortened: as §1

Lolium perenne (LOLPE) = conditions: Lolium perenne, Rate 250 g/ha, 100%=total damage, 0%=no damage
Procedure, shortened: as §1

[3] = post-emergence, 360 h, post-emergence, visual assessment 15 DAA, read-out: Post-emergence herbicidal activity (percentage phytotoxicity) ALOMY POST
[4] = pre-emergence, 480 h, pre-emergence, visual assessment 20 DAA, read-out: Pre-emergence herbicidal activity (percentage phytotoxicity) ALOMY PRE
[5] = post-emergence, 360 h, post-emergence, visual assessment 15 DAA, read-out: Post-emergence herbicidal activity (percentage phytotoxicity) ECHCG POST
[6] = pre-emergence, 480 h, pre-emergence, visual assessment 20 DAA, read-out: Pre-emergence herbicidal activity (percentage phytotoxicity) ECHCG PRE
[7] = post-emergence, 360 h, post-emergence, visual assessment 15 DAA, read-out: Post-emergence herbicidal activity (percentage phytotoxicity) AVEFA POST
[8] = pre-emergence, 480 h, pre-emergence, visual assessment 20 DAA, read-out: Pre-emergence herbicidal activity (percentage phytotoxicity) AVEFA PRE
[9] = post-emergence, 360 h, post-emergence, visual assessment 15 DAA, read-out: Post-emergence herbicidal activity (percentage phytotoxicity) LOLPE POST
[10] = pre-emergence, 480 h, pre-emergence, visual assessment 20 DAA, read-out: Pre-emergence herbicidal activity (percentage phytotoxicity) LOLPE PRE

Row | SMILES | pest or weed control at 250 g/ha [1, 3] [%] | pest or weed control at 250 g/ha [1, 4] [%] | pest or weed control at 250 g/ha [2, 5] [%] | pest or weed control at 250 g/ha [2, 6] [%] | pest or weed control at 250 g/ha (Avena fatua (AVEFA); [7]) [%] | pest or weed control at 250 g/ha (Avena fatua (AVEFA); [8]) [%] | pest or weed control at 250 g/ha (Lolium perenne (LOLPE); [9]) [%] | pest or weed control at 250 g/ha (Lolium perenne (LOLPE); [10]) [%]
1 | COc1ccc(CNC(=O)CC2CC(=O)C(c3c(C)cc(-c4ccc(Cl)cn4)cc3C)C2=O)cc1 (stereo not shown) [Compound B380] | 70 | 70 | 100 | 90 | 90 | 80 | 90 | 80
2 | C#Cc1cc(-c2ncc(F)cc2F)cc(C)c1C1C(=O)CC(CC(=O)NC(C)(C)C)C1=O (stereo not shown) [Compound B381, N-tert-butyl-2-[3-[4-(3,5-difluoro-2-pyridyl)-2-ethynyl-6-methyl-phenyl]-2,4-dioxo-cyclopentyl]acetamide] | 100 | 70 | 100 | 70 | 100 | 70 | 100 | 90
3 | C=Cc1cc(-c2ncc(F)cc2F)cc(C)c1C1C(=O)CC(CC(=O)NC(C)(C)C)C1=O (stereo not shown) [Compound B382, N-tert-butyl-2-[3-[4-(3,5-difluoro-2-pyridyl)-2-methyl-6-vinyl-phenyl]-2,4-dioxo-cyclopentyl]acetamide] | 100 | 60 | 100 | 60 | 100 | 40 | 100 | 60
4 | Cc1cc(-c2ccc(F)cn2)cc(C)c1C1C(=O)CC(CC(=O)NCc2cccc(F)c2)C1=O (stereo not shown) [Compound B383] | 100 | 90 | 90 | 100 | 100 | 90 | 90 | 100
5 | Cc1cc(-c2ccc(F)cn2)cc(C)c1C1C(=O)CC(CC(=O)NCc2cccc(Br)c2)C1=O (stereo not shown) [Compound B384] | 90 | 80 | 40 | 90 | 100 | 80 | 90 | 80
6 | Cc1cc(-c2ccc(F)cn2)cc(C)c1C1C(=O)CC(CC(=O)NC(C)C)C1=O (stereo not shown) [Compound B385] | 100 | 100 | 100 | 100 | 100 | 100 | 100 | 100
7 | Cc1cc(-c2ccc(F)cn2)cc(C)c1C1C(=O)CC(CC(=O)NCC2CC2)C1=O (stereo not shown) [Compound B386] | 100 | 100 | 40 | 100 | 100 | 100 | 90 | 100
8 | C#CCNC(=O)CC1CC(=O)C(c2c(C)cc(-c3ccc(F)cn3)cc2C)C1=O (stereo not shown) [Compound B387] | 90 | 90 | 90 | 100 | 100 | 100 | 90 | 90
9 | C#CC(C)(C)NC(=O)CC1CC(=O)C(c2c(C)cc(-c3ccc(F)cn3)cc2C)C1=O (stereo not shown) [Compound B388] | 90 | 90 | 100 | 100 | 100 | 90 | 90 | 90
10 | COCC(C)(C)NC(=O)CC1CC(=O)C(c2c(C)cc(-c3ccc(F)cn3)cc2C)C1=O (stereo not shown) [Compound B389] | 100 | 90 | 100 | 100 | 100 | 90 | 90 | 100
11 | C=CC(C)NC(=O)CC1CC(=O)C(c2c(C)cc(-c3ccc(F)cn3)cc2C)C1=O (stereo not shown) [Compound B390] | 100 | 100 | 90 | 100 | 100 | 100 | 90 | 100
12 | COCC(C)NC(=O)CC1CC(=O)C(c2c(C)cc(-c3ccc(F)cn3)cc2C)C1=O (stereo not shown) [Compound B391] | 90 | 90 | 100 | 100 | 100 | 100 | 90 | 100
13 | CCN(C)C(=O)CC1CC(=O)C(c2c(C)cc(-c3ccc(F)cn3)cc2C)C1=O (stereo not shown) [Compound B392] | 90 | 100 | 100 | 100 | 100 | 100 | 90 | 100
14 | Cc1cc(-c2ccc(F)cn2)cc(C)c1C1C(=O)CC(CC(=O)N(C)C(C)(C)C)C1=O (stereo not shown) [Compound B393] | 90 | 100 | 100 | 100 | 100 | 90 | 90 | 100
15 | C#CCN(C)C(=O)CC1CC(=O)C(c2c(C)cc(-c3ccc(F)cn3)cc2C)C1=O (stereo not shown) [Compound B394] | 100 | 100 | 100 | 100 | 100 | 100 | 90 | 100
16 | C=CCNC(=O)CC1CC(=O)C(c2c(C)cc(-c3ccc(F)cn3)cc2C)C1=O (stereo not shown) [Compound B395] | 100 | 100 | 100 | 100 | 100 | 100 | 90 | 100
17 | Cc1cc(-c2ccc(F)cn2)cc(C)c1C1C(=O)CC(CC(=O)N(C)C(C)C)C1=O (stereo not shown) [Compound B396] | 90 | 100 | 100 | 100 | 100 | 100 | 90 | 100
18 | Cc1cc(-c2ccc(F)cn2)cc(C)c1C1C(=O)CC(CC(=O)NCc2cccs2)C1=O (stereo not shown) [Compound B397] | 90 | 70 | 100 | 100 | 90 | 80 | 90 | 70
19 | Cc1ccc(CNC(=O)CC2CC(=O)C(c3c(C)cc(-c4ccc(F)cn4)cc3C)C2=O)cc1 (stereo not shown) [Compound B398] | 80 | 50 | 100 | 70 | 80 | 40 | 90 | 70
20 | Cc1cc(-c2ccc(F)cn2)cc(C)c1C1C(=O)CC(CC(=O)NC/C=C/Cl)C1=O (stereo not shown) [Compound B400] | 100 | 100 | 100 | 100 | 100 | 100 | 90 | 100
